# Measurements from ChEMBL document CHEMBL1201862, “PubChem BioAssay data set” (2004).
# Activity calls are given as the source filed them.
# Key:
# [1] = Counterscreen for AddAB inhibitors: absorbance-based bacterial cell-based high throughput dose response assay for inhibitors of bacterial viability. [Related pubchem assays (depositor defined):AID435030, AID449728, AID449731, AID488942, AID488955, AID488956]; assay type: functional
# INS1 = assay: beta cell apoptosis inhibitors, cytokine rescue, dose response, luminescence, retest (AID 449756); assay type: functional, cell-based; conditions: Rattus norvegicus, INS1;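 note: cell death triggered by IL-1 beta plus TNF-alpha plus IFN-gamma mixture; protective hits raise ATP signal compared with cytokine alone wells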
# Exodeoxyribonuclease V = Exodeoxyribonuclease V (Escherichia coli (strain K12), UniProt P04993+P07648+P08394); assay: E. coli RecBCD inhibitors, dose response, counter-screen for AddAB inhibitor project, absorbance, V66 E. coli, mutant T4 phage (AID 492957); assay type: functional, cell-based, Escherichia coli str. K-12 substr. MG1655
# Chain of Exodeoxyribonuclease V (P04993 whole entry): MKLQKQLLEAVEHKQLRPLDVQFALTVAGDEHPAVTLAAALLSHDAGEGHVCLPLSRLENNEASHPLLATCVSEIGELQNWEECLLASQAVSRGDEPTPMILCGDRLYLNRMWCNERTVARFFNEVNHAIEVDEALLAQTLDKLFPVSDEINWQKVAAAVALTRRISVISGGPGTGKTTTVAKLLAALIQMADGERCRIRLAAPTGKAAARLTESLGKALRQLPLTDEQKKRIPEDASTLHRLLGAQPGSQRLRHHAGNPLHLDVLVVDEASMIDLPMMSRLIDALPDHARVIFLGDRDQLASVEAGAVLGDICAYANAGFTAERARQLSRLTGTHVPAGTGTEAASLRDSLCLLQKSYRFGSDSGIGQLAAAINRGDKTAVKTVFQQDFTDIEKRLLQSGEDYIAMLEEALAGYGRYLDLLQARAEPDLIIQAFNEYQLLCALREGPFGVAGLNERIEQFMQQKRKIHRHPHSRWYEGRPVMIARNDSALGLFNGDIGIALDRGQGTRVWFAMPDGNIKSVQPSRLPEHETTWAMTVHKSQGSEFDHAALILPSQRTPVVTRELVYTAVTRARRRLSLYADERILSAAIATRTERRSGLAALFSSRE
# Chain of Exodeoxyribonuclease V (P07648 whole entry): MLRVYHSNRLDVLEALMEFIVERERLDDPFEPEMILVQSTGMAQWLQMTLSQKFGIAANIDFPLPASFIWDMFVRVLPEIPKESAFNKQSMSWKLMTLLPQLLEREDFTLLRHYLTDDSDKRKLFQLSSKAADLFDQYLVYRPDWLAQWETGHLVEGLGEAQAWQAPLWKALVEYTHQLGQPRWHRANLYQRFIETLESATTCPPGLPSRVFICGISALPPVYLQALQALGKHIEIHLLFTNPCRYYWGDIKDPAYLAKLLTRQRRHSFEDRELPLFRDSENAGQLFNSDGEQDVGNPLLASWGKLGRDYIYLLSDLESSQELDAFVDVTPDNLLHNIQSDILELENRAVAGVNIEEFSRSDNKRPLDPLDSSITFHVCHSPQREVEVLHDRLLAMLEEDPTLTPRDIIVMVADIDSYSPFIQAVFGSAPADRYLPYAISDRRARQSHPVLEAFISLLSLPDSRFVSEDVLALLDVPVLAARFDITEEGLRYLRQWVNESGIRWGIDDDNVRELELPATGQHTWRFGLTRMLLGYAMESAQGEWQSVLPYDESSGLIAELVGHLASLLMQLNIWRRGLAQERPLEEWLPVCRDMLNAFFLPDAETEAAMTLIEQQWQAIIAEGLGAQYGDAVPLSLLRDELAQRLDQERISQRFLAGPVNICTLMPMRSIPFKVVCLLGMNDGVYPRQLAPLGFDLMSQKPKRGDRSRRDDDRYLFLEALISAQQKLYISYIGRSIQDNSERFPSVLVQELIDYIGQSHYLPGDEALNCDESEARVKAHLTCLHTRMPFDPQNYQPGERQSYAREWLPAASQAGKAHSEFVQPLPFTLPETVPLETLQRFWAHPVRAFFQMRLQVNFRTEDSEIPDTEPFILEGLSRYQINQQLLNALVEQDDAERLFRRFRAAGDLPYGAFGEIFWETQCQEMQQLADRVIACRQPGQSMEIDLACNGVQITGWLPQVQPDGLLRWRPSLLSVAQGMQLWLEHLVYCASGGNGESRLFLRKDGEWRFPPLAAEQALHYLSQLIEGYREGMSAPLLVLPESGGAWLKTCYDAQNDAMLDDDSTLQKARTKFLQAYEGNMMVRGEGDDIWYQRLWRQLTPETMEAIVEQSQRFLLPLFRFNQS
# Chain of Exodeoxyribonuclease V (P08394 whole entry): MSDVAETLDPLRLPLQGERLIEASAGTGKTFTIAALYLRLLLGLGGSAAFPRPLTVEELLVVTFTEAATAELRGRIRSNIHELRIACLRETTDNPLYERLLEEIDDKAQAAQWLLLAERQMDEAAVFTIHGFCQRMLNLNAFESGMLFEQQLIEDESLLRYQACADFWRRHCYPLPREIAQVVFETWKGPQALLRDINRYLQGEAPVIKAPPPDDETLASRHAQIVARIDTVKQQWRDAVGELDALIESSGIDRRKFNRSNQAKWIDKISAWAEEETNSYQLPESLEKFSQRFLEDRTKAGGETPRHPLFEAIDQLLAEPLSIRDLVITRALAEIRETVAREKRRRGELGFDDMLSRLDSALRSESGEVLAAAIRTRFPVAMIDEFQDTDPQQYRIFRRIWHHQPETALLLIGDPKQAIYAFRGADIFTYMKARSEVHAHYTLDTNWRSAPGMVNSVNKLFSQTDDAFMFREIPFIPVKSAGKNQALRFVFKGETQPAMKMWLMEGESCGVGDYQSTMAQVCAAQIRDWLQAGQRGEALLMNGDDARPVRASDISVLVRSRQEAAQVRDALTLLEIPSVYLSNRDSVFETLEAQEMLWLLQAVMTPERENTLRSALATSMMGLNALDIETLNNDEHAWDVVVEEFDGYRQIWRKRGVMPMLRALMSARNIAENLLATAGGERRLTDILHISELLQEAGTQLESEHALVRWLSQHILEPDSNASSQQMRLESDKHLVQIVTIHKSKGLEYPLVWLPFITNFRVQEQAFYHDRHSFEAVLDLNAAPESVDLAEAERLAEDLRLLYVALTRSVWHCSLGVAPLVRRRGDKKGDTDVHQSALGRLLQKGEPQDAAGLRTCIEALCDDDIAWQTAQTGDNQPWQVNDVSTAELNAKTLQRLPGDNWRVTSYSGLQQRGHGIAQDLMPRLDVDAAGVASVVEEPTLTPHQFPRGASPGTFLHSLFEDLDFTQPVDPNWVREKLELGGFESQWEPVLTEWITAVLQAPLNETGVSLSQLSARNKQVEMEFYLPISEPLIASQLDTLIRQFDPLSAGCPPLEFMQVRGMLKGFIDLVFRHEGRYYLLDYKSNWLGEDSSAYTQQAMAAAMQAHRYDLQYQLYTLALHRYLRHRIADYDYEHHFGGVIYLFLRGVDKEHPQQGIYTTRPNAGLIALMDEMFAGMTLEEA
# Nonstructural protein 1 = Nonstructural protein 1 (Influenza A virus, UniProt Q194T2); assay type: functional, Influenza A virus (A/California/07/2009(H1N1))
# Chain of Nonstructural protein 1 (Q194T2 whole entry): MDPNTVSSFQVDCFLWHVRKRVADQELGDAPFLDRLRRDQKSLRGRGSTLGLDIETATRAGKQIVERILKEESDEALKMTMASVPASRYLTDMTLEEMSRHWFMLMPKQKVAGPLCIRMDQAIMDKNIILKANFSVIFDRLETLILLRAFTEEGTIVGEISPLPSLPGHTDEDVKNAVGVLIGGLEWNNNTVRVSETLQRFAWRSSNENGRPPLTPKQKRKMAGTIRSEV
# [2] = target: Peroxisome proliferator-activated receptor gamma (Homo sapiens, UniProt P37231); assay: PPARg partial agonists, dose response, cell-based, luminescence, assay provider (AID 504447); assay type: functional
# Chain of Peroxisome proliferator-activated receptor gamma (P37231 whole entry, the tested form may be a part): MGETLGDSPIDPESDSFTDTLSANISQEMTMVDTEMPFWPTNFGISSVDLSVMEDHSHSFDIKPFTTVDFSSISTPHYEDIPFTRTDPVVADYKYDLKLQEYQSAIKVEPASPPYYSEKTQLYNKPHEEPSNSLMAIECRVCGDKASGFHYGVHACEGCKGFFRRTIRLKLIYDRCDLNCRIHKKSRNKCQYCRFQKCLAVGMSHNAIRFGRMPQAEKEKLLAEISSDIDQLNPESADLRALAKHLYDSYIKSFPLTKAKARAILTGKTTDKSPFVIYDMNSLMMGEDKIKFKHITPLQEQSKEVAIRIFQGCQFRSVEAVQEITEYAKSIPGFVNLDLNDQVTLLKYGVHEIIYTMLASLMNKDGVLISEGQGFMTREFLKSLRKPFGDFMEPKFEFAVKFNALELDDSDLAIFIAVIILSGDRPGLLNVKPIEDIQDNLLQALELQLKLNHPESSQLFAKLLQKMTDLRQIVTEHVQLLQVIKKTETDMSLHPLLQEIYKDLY
# [3] = target: T1, Sentrin-specific protease 1 (Homo sapiens, UniProt Q9P0U3); assay: Dose response confirmation of small molecule inhibitors of the catalytic domain of the SUMO protease, SENP1 in a FRET assay.; assay type: functional; conditions: read-out: IC50_Mean
# T1 sequence (Q9P0U3 whole entry): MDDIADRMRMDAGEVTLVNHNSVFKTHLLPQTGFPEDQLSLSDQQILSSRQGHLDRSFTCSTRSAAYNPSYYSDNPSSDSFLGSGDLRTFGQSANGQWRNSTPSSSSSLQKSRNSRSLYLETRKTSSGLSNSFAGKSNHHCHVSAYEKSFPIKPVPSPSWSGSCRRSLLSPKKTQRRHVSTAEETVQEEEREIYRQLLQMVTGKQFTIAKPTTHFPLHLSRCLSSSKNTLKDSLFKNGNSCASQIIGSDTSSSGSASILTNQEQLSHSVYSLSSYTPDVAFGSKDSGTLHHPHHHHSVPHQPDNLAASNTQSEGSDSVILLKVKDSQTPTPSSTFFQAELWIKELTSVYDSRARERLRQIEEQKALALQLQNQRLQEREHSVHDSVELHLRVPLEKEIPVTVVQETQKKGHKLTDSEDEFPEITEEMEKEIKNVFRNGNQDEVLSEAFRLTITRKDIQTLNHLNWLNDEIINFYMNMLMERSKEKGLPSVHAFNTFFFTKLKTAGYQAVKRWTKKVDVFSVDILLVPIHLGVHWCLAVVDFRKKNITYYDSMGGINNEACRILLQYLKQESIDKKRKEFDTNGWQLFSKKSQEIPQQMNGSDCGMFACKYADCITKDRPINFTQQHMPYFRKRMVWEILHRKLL
# [4] = target: T1, Sentrin-specific protease 1; assay: potency of human SENP1 inhibitors, dose response, biochemical, kinetic FRET (AID 651697); assay type: functional; conditions: read-out: IC50_Mean
# [5] = target: T2, Alkaline phosphatase, tissue-nonspecific isozyme (Homo sapiens, UniProt P05186); assay: TNAP enzyme activators, dose response, selectivity assay for mouse IAP activator project, biochemical, TNAP isozyme, mouse IAP uHTS hits (AID 488880); assay type: functional
# T2 sequence (P05186 whole entry): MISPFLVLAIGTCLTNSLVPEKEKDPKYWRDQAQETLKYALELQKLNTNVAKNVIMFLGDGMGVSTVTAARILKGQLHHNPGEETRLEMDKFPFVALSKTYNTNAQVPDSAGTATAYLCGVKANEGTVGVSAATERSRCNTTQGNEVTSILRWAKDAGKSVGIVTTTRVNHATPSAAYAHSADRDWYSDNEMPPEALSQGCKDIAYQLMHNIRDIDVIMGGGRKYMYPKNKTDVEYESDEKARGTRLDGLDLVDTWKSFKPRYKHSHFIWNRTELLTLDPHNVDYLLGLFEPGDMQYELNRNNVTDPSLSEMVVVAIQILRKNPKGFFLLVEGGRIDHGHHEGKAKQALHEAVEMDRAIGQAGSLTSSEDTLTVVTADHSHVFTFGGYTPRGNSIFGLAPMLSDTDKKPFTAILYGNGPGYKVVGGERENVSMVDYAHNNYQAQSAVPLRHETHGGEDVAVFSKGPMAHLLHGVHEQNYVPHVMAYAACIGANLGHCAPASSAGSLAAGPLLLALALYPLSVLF
# [6] = target: Intestinal-type alkaline phosphatase (Mus musculus, UniProt P24822); assay: mouse intestinal alkaline phosphatase activators, dose response, biochemical, luminescence, uHTS hits (AID 488783); assay type: functional
# Chain of Intestinal-type alkaline phosphatase (Mus musculus, UniProt P24822) (P24822 whole entry): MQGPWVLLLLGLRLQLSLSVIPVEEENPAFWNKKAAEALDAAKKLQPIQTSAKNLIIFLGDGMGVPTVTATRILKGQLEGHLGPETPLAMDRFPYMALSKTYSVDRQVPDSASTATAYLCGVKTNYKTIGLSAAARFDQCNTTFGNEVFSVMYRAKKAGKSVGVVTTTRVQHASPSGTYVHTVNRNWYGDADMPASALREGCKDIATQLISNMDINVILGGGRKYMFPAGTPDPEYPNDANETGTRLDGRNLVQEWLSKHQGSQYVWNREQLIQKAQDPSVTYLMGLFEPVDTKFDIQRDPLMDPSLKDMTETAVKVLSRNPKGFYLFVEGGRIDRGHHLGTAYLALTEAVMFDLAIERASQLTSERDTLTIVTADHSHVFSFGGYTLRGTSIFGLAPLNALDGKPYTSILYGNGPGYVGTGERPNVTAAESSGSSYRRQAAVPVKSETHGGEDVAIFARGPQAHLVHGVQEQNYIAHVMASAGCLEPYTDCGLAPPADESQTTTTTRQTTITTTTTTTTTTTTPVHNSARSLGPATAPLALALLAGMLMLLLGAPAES
# [7] = target: Intestinal-type alkaline phosphatase (Homo sapiens, UniProt P09923); assay: activation of human intestinal alkaline phosphatase – biochemical, dose response (AID 488873); assay type: functional
# Chain of Intestinal-type alkaline phosphatase (Homo sapiens, UniProt P09923) (P09923 whole entry): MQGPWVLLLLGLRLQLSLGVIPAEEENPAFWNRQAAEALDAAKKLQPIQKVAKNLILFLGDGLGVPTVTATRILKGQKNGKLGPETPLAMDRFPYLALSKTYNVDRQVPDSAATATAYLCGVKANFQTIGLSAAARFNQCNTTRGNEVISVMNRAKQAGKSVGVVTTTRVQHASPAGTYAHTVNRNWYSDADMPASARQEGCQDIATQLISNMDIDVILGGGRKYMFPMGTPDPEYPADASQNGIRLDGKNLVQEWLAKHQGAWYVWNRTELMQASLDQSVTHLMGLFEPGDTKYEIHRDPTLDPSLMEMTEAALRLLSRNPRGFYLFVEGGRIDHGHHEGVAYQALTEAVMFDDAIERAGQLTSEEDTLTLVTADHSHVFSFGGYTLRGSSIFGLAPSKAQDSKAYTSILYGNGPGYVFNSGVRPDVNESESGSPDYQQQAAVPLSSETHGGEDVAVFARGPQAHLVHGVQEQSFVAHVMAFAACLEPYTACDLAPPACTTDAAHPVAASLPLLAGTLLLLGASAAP
smiles,measurement,setting,value
Nc1c(Cl)ncnc1N/N=C/c1ccc2ccccc2n1,IC50,[1],> 119 µM (inactive)
same,AC50,INS1,0.825 µM (active)
same,IC50,Exodeoxyribonuclease V,> 119 µM (inactive)
same,IC50,Nonstructural protein 1,8.42 µM (active)
COc1ccccc1-n1cc(C(=O)c2cc(Cl)ccc2O)cc(C#N)c1=O,EC50,[2],2.4 µM (active)
same,IC50,[3],25.5 µM (inactive)
same,IC50,[4],40.9 µM (inactive)
Cc1ccc(NC(=O)CN(C)S(=O)(=O)c2ccc3[nH]c(=O)oc3c2)c(C)c1,EC50,[5],73.1 µM (active)
same,EC50,[6],57.9 µM (active)
same,EC50,[7],61.3 µM (active)
